Results on five molecules are retold here after patent US4897417A, “Prodrugs of 3,4-hydroxy benzoyloxypropanolamines” (E. I. Du Pont de Nemours & Co., priority 1988, dated 1990).

Data set [1] is described as follows: Ocular bioavailability in rabbits (aqueous humor levels after topical corneal dosing). Type of data set: in vivo, New Zealand White Rabbits. As to conditions: for area under the AH concentration time curve (AUC0-240'): 50 μL of 0.25% Timolol or 0.5% compound 8d; for absorption in the eye: topical. The protocol: The ocular bioavailability of Timolol and compound 8d (dipivaloyl ester prodrug of compound 9d) was evaluated in New Zealand White Rabbits. Fifty μL of a solution of 0.25% Timolol or 0.5% compound 8d (both in the same vehicle) were administered onto the cornea of both eyes of 48 rabbits (24 rabbits/compound). At 5, 15, 30, 60, 120, 180, 240, and 360 minutes after dosing, 3 rabbits (6 eyes) per compound were killed. Aqueous humor (AH), was quickly removed from the eyes, weighed and processed to determine tissue levels of Timolol or compound 8d and compound 9d.

In data set [2] the test system is isoproterenol-induced increase in heart rate. In words: Effect on systemic beta-blockade upon topical administration (isoproterenol-induced heart rate in anesthetized dogs). Type of data set: in vivo, Mongrel dogs. Conditions: for HR, ISO only: 0 min (dose), isoproterenol only, before treatment; for HR, ISO only / HR, baseline: 0.125% group; for HR: 0.125% topical, isoproterenol infusion 0.5 μg/kg/min; for HR, baseline: -30 min, before isoproterenol and before treatment; for systemic beta-blockade of isoproterenol-induced increase in heart rate / effect on the heart rate responses to isoproterenol: in words, 50 μL, 0.125% solution; for effect on the heart rate responses to isoproterenol: topical; for drop in heart rate: within 60 minutes, 0.125% concentration. The protocol:
Mongrel dogs were anesthetized and control readings were made at -45 and -30 minutes. Following the -30 minute reading, an infusion of isoproterenol (0.5 μg/kg/min) was begun and maintained during the course of the experiment. Two readings of pretreatment isoproterenol responses were made at […] and at zero minutes. At zero minutes, a 50 μL sample of test compound was administered topically. This dose was repeated at 50, 60 and 90 minutes and the animal was monitored for heart rate for 180 minutes following the first application. Heart rate was obtained directly from the strip chart recording.

For data set [3] the test system is unchanged. The data set is described as above. Type of data set: in vivo, Mongrel dogs. Conditions: 120 min (dose) post-treatment, 0.125% topical, isoproterenol infusion 0.5 μg/kg/min.

For `Cc1cc(OC(=O)C(C)(C)C)c(OC(=O)C(C)(C)C)cc1C(=O)OCC(O)CNC(C)(C)CNC(=O)C1CCOC1` (stereo not drawn) [Compound 8d], the “area under the AH concentration time curve (AUC0-240')” value in data set [1] (aqueous humor, rabbits) was 27,377 ng/100 μL/min. In addition, the “AUC of compound 8d in AH relative to AUC of Timolol in AH” value in data set [1] (aqueous humor, rabbits, after 0.25% Timolol or 0.5% compound 8d) was 3 ×. Further, the “absorption in the eye” value in data set [1] (in words, rabbits) is “rapidly absorbed in the eye”. In addition, in data set [1] (in words, rabbits, topical compound 8d), the “delivery of compound 9d to the internal structures of the eye” value was “effectively delivers compound 9d to the internal structures of the eye”.

As to `Cc1cc(O)c(O)cc1C(=O)OCC(O)CNC(C)(C)CNC(=O)C1CCOC1` (stereo not drawn) [Compound 9d], the “stability in rabbit ocular tissues” value in data set [1] (in words) was “stable in rabbit ocular tissues”.

Turning to `CC(=O)NCC(C)(C)NCC(O)COC(=O)c1cc(OC(=O)C(C)(C)C)c(OC(=O)C(C)(C)C)cc1C` (stereo not drawn) [Compound 8a], the “HR, ISO only” value in data set [2] is reported as 215 bpm. The HR in data set [2] (15 min post-treatment) was 214 bpm; in data set [2] (30 min post-treatment) it was 213 bpm; in data set [2] (45 min post-treatment), 210 bpm; in data set [2] (60 min (dose) post-treatment), 208 bpm; in data set [2] (90 min post-treatment), 207 bpm; in data set [2] (150 min post-treatment), 202 bpm. In addition, in data set [3], the HR was found to be 203 bpm. Also, in data set [2], the “HR, baseline” value was found to be 152 bpm. The “systemic beta-blockade of isoproterenol-induced increase in heart rate” value in data set [2] is reported as “no systemic beta-blockade”. Besides, the “effect on the heart rate responses to isoproterenol” value (shortened to “effect on the heart rate responses”) in data set [2] is on record as “no effect”. Also, the “drop in heart rate” value in data set [2] came out at 2 bpm.

Consider `Cc1cc(OC(=O)C(C)(C)C)c(OC(=O)C(C)(C)C)cc1C(=O)OCC(O)CNC(C)(C)CNC(N)=O` (stereo not drawn) [Compound 8c], for which, in data set [2], the “HR, ISO only” value was 212 bpm. Further, the HR is given as 212 bpm in data set [2] (15 min post-treatment); 210 bpm in data set [2] (30 min post-treatment); 210 bpm in data set [2] (45 min post-treatment); 210 bpm in data set [2] (60 min (dose) post-treatment); 210 bpm in data set [2] (90 min post-treatment); 212 bpm in data set [2] (150 min post-treatment). Further, the HR in data set [3] stood at 210 bpm. In data set [2], the “HR, baseline” value was determined as 158 bpm. The “systemic beta-blockade of isoproterenol-induced increase in heart rate” value in data set [2] is given as “no systemic beta-blockade”. Besides, the “effect on the heart rate responses” value in data set [2] was “no effect”. In addition, the “drop in heart rate” value in data set [2] is on record as 7 bpm.

`CC(C)(C)NC[C@H](O)COc1nsnc1N1CCOCC1` [Timolol, reference compound]: in data set [1] (aqueous humor, rabbits), the “area under the AH concentration time curve (AUC0-240')” value is reported as 9,022 ng/100 μL/min. Besides, the “absorption in the eye” value in data set [1] (in words, rabbits) is reported as “rapidly absorbed in the eye”. The “HR, ISO only” value in data set [2] stood at 213 bpm. The HR in data set [2] (15 min post-treatment) was 198 bpm; in data set [2] (30 min post-treatment) it was 185 bpm; in data set [2] (45 min post-treatment) it was 174 bpm; in data set [2] (60 min (dose) post-treatment), 174 bpm; in data set [2] (90 min post-treatment), 179 bpm; in data set [2] (150 min post-treatment), 192 bpm. The molecule also showed an HR in data set [3] of 183 bpm. The “HR, baseline” value in data set [2] came out at 142 bpm. The “effect on the heart rate responses” value in data set [2] is listed as “significant inhibitory effect”. Moreover, in data set [2], the “drop in heart rate” value is on record as 39 bpm.
